Measurements from US7052908B2, “Androgen receptor coactivators” (University of Rochester, priority 1998, dated 2006).

T1: wtAR (Homo sapiens, UniProt P10275)
T1 sequence (P10275 1-920): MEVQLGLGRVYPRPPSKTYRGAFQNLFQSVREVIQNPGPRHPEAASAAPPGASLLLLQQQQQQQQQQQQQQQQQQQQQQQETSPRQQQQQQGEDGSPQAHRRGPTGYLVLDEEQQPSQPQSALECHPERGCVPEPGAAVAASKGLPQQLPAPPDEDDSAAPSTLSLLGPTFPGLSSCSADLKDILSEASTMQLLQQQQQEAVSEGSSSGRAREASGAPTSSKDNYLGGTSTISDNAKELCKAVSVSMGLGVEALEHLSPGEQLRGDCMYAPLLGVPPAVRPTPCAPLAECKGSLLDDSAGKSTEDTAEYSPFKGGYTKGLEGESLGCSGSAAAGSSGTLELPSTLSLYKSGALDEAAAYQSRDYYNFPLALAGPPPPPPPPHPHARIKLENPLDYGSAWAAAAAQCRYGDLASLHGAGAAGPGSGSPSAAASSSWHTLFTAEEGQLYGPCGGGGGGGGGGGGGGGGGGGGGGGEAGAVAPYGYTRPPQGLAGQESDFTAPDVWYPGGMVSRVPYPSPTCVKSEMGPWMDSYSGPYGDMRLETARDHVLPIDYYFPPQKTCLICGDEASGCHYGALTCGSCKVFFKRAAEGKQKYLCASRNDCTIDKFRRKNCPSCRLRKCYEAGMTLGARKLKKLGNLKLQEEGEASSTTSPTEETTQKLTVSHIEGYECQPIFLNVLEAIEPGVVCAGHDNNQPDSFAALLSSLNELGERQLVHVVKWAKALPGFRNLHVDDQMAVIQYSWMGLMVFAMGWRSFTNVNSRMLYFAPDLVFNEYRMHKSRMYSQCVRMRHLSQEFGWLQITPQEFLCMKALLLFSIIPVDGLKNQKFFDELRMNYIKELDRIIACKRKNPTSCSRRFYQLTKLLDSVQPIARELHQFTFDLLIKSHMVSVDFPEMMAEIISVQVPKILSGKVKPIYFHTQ

T2: mARe708k (Homo sapiens, UniProt P10275, E710K)
T2 construct: expressed in transfected cells; host or cells: DU145
T2 sequence (P10275 1-920 E710K): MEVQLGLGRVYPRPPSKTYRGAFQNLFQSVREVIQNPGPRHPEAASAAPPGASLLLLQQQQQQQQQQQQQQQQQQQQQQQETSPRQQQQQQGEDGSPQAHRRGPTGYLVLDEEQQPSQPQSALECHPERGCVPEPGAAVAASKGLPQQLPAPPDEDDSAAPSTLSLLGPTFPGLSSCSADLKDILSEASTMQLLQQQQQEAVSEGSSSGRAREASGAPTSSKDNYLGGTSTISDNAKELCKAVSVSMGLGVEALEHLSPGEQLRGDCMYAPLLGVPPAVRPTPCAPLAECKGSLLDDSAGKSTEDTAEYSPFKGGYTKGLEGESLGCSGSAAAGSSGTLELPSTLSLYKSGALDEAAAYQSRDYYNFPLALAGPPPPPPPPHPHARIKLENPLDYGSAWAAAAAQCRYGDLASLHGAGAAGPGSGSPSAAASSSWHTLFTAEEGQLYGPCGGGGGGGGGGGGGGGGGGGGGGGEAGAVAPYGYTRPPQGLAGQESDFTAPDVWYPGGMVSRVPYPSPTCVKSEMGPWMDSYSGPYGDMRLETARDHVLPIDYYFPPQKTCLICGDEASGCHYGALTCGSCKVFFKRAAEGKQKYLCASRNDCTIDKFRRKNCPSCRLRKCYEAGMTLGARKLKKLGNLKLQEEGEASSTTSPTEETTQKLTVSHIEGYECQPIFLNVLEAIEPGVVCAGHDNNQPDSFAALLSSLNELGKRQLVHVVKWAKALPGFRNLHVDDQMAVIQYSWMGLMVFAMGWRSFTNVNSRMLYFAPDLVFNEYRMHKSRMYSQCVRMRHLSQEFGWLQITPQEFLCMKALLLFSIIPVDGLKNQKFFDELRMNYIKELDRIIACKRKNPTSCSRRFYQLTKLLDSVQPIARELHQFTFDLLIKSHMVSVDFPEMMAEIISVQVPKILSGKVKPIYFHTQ

T3: mARe708k (Homo sapiens, UniProt P10275)
T3 construct: expressed in transfected cells; host or cells: DU145
T3 sequence (P10275 1-920 E710K): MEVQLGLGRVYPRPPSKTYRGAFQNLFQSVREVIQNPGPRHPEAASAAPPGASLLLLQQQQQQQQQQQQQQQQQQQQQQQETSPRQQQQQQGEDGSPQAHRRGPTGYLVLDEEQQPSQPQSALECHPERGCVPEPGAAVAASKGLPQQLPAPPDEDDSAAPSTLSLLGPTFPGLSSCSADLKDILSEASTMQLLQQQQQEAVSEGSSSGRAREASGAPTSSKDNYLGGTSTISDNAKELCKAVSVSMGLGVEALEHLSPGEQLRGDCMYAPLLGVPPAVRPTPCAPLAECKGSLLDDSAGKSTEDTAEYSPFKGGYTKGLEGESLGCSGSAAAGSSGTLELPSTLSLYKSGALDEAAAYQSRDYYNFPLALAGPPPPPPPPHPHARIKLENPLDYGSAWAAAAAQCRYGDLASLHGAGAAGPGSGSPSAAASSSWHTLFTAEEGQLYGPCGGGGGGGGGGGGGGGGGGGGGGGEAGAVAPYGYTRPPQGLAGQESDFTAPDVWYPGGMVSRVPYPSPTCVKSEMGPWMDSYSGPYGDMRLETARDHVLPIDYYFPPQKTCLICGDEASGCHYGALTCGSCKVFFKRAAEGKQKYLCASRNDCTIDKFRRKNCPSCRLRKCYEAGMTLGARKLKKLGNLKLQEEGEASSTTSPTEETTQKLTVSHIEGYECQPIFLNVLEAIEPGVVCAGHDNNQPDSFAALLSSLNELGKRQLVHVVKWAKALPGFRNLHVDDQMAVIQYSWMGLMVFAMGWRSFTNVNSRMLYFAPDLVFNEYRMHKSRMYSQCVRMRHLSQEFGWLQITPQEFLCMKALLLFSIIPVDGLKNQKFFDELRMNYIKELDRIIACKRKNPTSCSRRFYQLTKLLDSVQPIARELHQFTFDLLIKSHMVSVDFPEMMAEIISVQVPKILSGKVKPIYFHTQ

T4: AR (Homo sapiens, UniProt P10275)
T4 sequence (P10275 1-920): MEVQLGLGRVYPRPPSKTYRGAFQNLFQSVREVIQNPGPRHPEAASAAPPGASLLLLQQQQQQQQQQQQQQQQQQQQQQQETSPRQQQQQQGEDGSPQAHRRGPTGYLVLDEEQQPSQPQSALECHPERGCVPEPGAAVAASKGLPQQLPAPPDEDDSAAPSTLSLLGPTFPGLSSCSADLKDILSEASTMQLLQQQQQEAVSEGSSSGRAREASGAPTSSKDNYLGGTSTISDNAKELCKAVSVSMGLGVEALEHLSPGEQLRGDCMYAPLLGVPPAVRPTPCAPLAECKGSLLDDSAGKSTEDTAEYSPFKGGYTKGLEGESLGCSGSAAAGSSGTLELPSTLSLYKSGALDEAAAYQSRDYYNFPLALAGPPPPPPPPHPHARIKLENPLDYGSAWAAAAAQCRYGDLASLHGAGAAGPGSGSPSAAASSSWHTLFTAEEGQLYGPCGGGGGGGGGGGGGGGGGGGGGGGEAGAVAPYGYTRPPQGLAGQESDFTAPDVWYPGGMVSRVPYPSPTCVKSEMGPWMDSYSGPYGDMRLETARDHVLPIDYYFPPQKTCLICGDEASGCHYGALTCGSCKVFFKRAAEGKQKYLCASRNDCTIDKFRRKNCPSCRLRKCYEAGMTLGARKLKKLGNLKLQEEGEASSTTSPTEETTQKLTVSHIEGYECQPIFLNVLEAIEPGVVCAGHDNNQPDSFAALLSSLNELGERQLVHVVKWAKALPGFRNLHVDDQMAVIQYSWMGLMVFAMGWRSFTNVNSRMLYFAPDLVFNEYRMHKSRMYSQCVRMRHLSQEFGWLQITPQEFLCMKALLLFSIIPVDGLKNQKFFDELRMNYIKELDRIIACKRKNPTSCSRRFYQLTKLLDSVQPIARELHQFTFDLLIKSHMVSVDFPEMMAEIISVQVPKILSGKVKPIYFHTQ


What was measured:
wtAR = target: T1, wtAR; experiment: AR transactivation, transient transfection with MMTV-CAT reporter in DU145 cells; conditions: for AR transcriptional activity induction: 10 nM E2 or 1 μM HF
AR [1] = experiment: Mammalian two-hybrid assay with CAT reporter in DU145 cells; assay type: cell-based, human; conditions: DU145; 10 nM DHT, or E2 or HF
Source text: The mammalian two-hybrid system employed was essentially the protocol of Clontech (California), with the following modifications. […] The hinge and LBD of wtAR were then inserted into pGAL0. Similarly, the VP16 activation domain was fused to pCMX under the control of a CMV promoter, and designated pCMX-VP16 (provided by Dr. R. M. Evan).

mARe708k [2] = target: T2, mARe708k; experiment: AR transactivation, transient transfection CAT reporter assay, mutant AR; assay type: cell-based
mARe708k [3] = target: T3, mARe708k; experiment: as above; assay type: cell-based; conditions: mARe708k cotransfected with Rb and/or ARA70; 10 nM E2 or 1 μM HF
mARt877s = experiment: as above; assay type: cell-based, human
AR [4] = target: T4, AR; experiment: AR-activated transcription (CAT) in transfected H1299 cells; assay type: cell-based; parameters: expressed in transfected cells; host or cells: DU145 (A1), NCI H1299 (A7), PC3 (A8); conditions: H1299 cells with endogenous ARA54
Source text: Since the C-terminal region of ARA54 (a.a. 361–471 of SEQ ID NO:2) isolated from prostate cDNA library has shown to be sufficient to interact with AR in yeast two-hybrid assays, we further investigated whether it could squelch the effect of ARA54 on AR-activated transcription in H1299 cells, which contain endogenous ARA54. The C-terminal region of ARA54 inhibits AR-mediated transcription by up to 70%; coexpression of exogenous full-length ARA54 reverses this squelching effect in a dose-dependent manner.
Human small lung carcinoma H1299 cell line, which has no endogenous AR protein, were transfected with AR and ARA24/Ran. Because ARA24/Ran is one of the most abundant and ubiquitously expressed proteins in various cells, both sense and antisense ARA24/Ran mammalian expression plasmids were tested.

| Molecule | response of wtAR transactivation to ligand (wtAR; E2 10^-9-10^-7 M or HF 10^-7-10^-5 M, in the presence or absence of ARA54) | AR transcriptional activity induction (wtAR; wild type AR cotransfected with Rb and ARA70) | AR transcriptional activity induction (wtAR; wild type AR cotransfected with Rb or ARA70) | response of wtAR transcriptional activity to ligand (wtAR; without ARA55, only at higher concentrations (10^-7 M for E2, 10^-5 M for HF)) | CAT activity with GAL0AR and VP16-ARA55 cotransfected (AR [1]) | agonistic activity toward ARe708k (mARe708k [2]) | AR transcriptional activity induction (mARe708k [3]) | response of Art877a transactivation to ligand (mARt877s; absence of ARA54, E2 10^-9-10^-7 M, HF 10^-7-10^-5 M) | response of LNCaP mAR to ligand compared to wtAR (mARt877s; compared to wtAR) | inhibition of AR-mediated transcription (AR [4]) |
| --- | --- | --- | --- | --- | --- | --- | --- | --- | --- | --- |
| CC(C)(O)C(=O)Nc1ccc([N+](=O)[O-])c(C(F)(F)F)c1 [HF, hydroxyflutamide, reference compound] | responded only marginally | 12 fold | 3–4 fold | responded marginally | not induced | no agonistic activity | almost no induction | responded | responded much better |  |
| C-terminal region of ARA54: a.a. 361–471 of ARA54, dominant negative inhibitor of AR-mediated transcription (protein) ANFNQSGNIADSSLSFTFTNSSNGPNLITTQTNSQALSQPIASSNVHDNFMNNEITASKIDDGNNSKPLSPGWTDQTAYNAFGITTGMFNTTTMDDVYNYLFDDEDTPPNPKKERNEYLQADEANKRLLDQRYGKRVIQKALEEMESKEWLEKNSKSCPCCGTPIEKLDGCNKMTCTGCMQYFCWICMGSLSRANPYKHFNDPGSPCFNRLFYAVDVDDDIWEDE |  |  |  |  |  |  |  |  |  | up to 70% |
